Where a SMILES comes first, the peptide text is derived from it. Bridges are numbered along the chain shown (N, C = ends). Where no end group is shown, it is not given here.
Target: T1, CR2-C3d interaction (Homo sapiens, UniProt P20023)
T1 construct: DNA corresponding to residues 1-133 of wild-type CR2 (SCR1-2) was PCR amplified; made in house; host or cells: E. coli (pMAL-P2X)
T1 sequence (P20023 21-153): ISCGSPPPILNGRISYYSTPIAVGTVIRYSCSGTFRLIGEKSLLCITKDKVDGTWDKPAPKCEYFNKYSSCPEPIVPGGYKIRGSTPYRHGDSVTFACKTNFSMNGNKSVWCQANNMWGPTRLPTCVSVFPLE
Assay: Peptide competition ELISA, CR2-C3d (bound C3d, solution phase MBP-CR2)
Type: binding
Conditions: not given

Q: How did the IC50 turn out when TRSYQSSLHQPA [C3dp1.2] was run?
A: 70 µM

Q: Which IC50 does the source give for APQALSSQYSRT [C3dp1.1] here?
A: 70 µM

Q: For IATANPRHHSTA [C3dp2.3], which IC50 is on record?
A: 160 µM

Q: APAHLSSQ [control] was tested. Which IC50 did it give?
A: 700 µM

Q: Which IC50 does the source give for ISTSNPRH [C3dp2.2] here?
A: 190 µM

Q: How did the IC50 turn out when APQHLSSQYSRT [C3dp1] was run?
A: 100 µM

Q: For APQHLSSQ [C3dp1.3], which IC50 is on record?
A: 40 µM

Q: With ISTSNPRAASTA [C3dp2.1] as the compound, how does the IC50 read?
A: 150 µM

Q: Which IC50 does the source give for DPKNHVH [C3dcp1.1, DPKNHVH] here?
A: 95 µM

Q: How did the IC50 turn out when ISTSNPRHHSTA [C3dp2] was run?
A: 450 µM

Same assay, conditions: peptide raised against CR2-EBV gp350

Q: For CC(C)C[C@@H]1NC(=O)[C@H](CO)NC(=O)CNC(=O)[C@H](CCC(=O)O)NC(=O)[C@H](CO)NC(=O)[C@@H](N)CSSC[C@@H](C(=O)O)NC(=O)CNC(=O)[C@H](CCCCN)NC1=O [gp350cp1] (H-CSEGSLKGC-OH; disulfide 1-9; N-terminus and C-terminus assumed), which “effect on the CR2-C3d interaction (ligand specificity)” value is on record?
A: unaffected

Target: T2, CR2-EBV gp350 interaction (Homo sapiens, UniProt P20023)
Assay: not given
Conditions: peptides raised against CR2-C3d

Q: APQHLSSQYSRT [C3dp1] was tested. Which “effect on the CR2-EBV gp350 interaction (ligand specificity)” value did it give?
A: largely unaffected

Target: T2, CR2-EBV gp350 interaction
Assay: biochemical
Conditions: not given

Q: How did the IC50 turn out when CC(C)C[C@@H]1NC(=O)[C@H](CO)NC(=O)CNC(=O)[C@H](CCC(=O)O)NC(=O)[C@H](CO)NC(=O)[C@@H](N)CSSC[C@@H](C(=O)O)NC(=O)CNC(=O)[C@H](CCCCN)NC1=O [gp350cp1] (H-CSEGSLKGC-OH; disulfide 1-9; N-terminus and C-terminus assumed) was run?
A: 150 µM
